In a melting point compilation (Tetko et al.; mined from patent text by program, amines drawn as free bases though some values may be those of a salt):

Compared with COC(=O)CCCc1cc2cc(Cl)ccc2n1S(=O)(=O)c1ccc(N)c(N)c1, COc1cc(OCc2ccccc2)ccc1C(O)c1cc(Cl)ccc1N (stereo unspecified) is lower in melting point: 158 to 160 °C for the first, 101 to 103 °C for the second.

First: Cc1nc(Cc2ccc(O)cc2)c2c(c1OCCCCNC(C)C)COC2
Second: CC(C)NCCc1ccc(O)cc1
The melting point of the first is lower: 59 to 61 °C for the first, 102 to 104 °C for the second.

Compared with CC(=O)Nc1ccc(S(=O)(=O)N2CCCCC2)cc1, CC(=O)N1CCC(c2ccc(S(=O)(=O)Cl)cc2)CC1 is lower in melting point: 137 to 139 °C for the first, 133 to 134 °C for the second.

First: COc1cc2c(c3c1OC(C)(C)C3)C(c1cccc(-c3cncnc3)c1)=NC(C)(C)C2
Second: CCOC(=O)c1ccc(-c2ccc(-c3ccccc3)c(-c3ccc4c(c3)C(C)(C)CCC4(C)C)c2)nc1
The melting point of the first is higher: 141 to 143 °C for the first, 105 to 107 °C for the second.

First: CCOC(=O)c1c(Cl)nc(-c2ccc(N)cc2)c(N)c1C(=O)OCC
Second: Cc1ccc(-c2noc3c(Cl)c(OCC(=O)O)ccc23)cc1
The melting point of the first is lower: 137 °C for the first, 257 to 260 °C for the second.

First: O=[N+]([O-])c1cccc(Cn2c(-c3ccc4c(c3)OCO4)nc3ccccc32)c1
Second: C=C1SC(=O)N(c2ccc3cc(-c4ccc(OC)c(-c5ccccc5)c4)ccc3c2)C1=O
The melting point of the first is lower: 70.2 to 73 °C for the first, 221 to 224 °C for the second.

First: CCN(CC)C(=O)n1cc(F)c(S(=O)(=O)c2c(Cl)cc(Cl)cc2Cl)n1
Second: COC(=O)c1cc(O)nn1Cc1ccc(Cl)cc1Cl
The melting point of the first is lower: 89 to 90 °C for the first, 222 to 223 °C for the second.

First: COC(=O)C(C(=O)OC)c1ccc(C(=O)O)cc1[N+](=O)[O-]
Second: COC(=O)C(C(=O)OC)c1cc(F)cc2c1C(=O)c1cc3ccccc3cc1C2=O
The melting point of the first is lower: 147 to 149 °C for the first, 225 to 230 °C for the second.

First: COCOc1ccc(C(CS(=O)(=O)c2ccc(-c3ccc(C(F)(F)F)cc3)cc2)N(O)C=O)cc1 (stereo unspecified)
Second: COC(=O)C(Oc1ccc(C(F)(F)F)cc1)c1ccc(OCCOc2ccc(Cl)cc2)cc1 (stereo unspecified)
The melting point of the first is higher: 137 to 138 °C for the first, 95 to 97 °C for the second.

First: CC(C)(C)CC1NC(C(=O)NC2CCC(O)CC2)C(c2cccc(Cl)c2F)C12C(=O)Nc1cc(Cl)ccc12 (stereo unspecified)
Second: N#CCCNC(=O)c1cccc(-c2ccc3c(c2)C(c2ccc(Cl)cc2Cl)CC3)c1 (stereo unspecified)
The melting point of the first is higher: 176 °C for the first, 112 to 114 °C for the second.

First: CCN1C(=O)C(O)=C(c2c(C)cc(C)cc2C)C1=O
Second: CNC(=N)Cc1nc(C(C)C)c(Sc2cc(Cl)cc(Cl)c2)n1C
The melting point of the first is lower: 168 °C for the first, 176 to 178 °C for the second.

Compared with COc1ccc(CN[C@@H]2CCCC[C@H]2NCc2ccc(OC)cc2)cc1 (relative stereo), COC(=O)c1ccc(NCc2ccc(F)cc2)cn1 is lower in melting point: 110 to 112 °C for the first, 107 to 108 °C for the second.

CCNC1CCc2c(ccc(OC)c2OC)C1O (stereo unspecified) and COc1cccc(C(O)c2ccncc2)c1OC (stereo unspecified) cannot be ordered by melting point: 125 to 128 °C for the first, 126 to 128 °C for the second.

Compared with O=C(Nc1ccc(-c2nc(-c3ccco3)no2)c(Cl)c1)OCC(Cl)(Cl)Cl, c1ccc(CCNc2cc(-n3cccn3)nc(-c3ccco3)n2)nc1 is lower in melting point: 219 to 220 °C for the first, 110 to 111 °C for the second.

Compared with O=C(CCc1ccccc1)N[C@H]1CC[C@H](c2ccc(O)cc2)CC1, N=C(N)NC1CCC(CCN2CCN(c3ccccc3)CC2)CC1 (stereo unspecified) is lower in melting point: 201 to 206 °C for the first, 140 to 170 °C for the second.

Compared with COC(=O)c1ccc(Cl)c(O)c1, COc1ccc(C(=O)c2coc(C(=O)O)cc2=O)cc1 is higher in melting point: 100 to 101 °C for the first, 185 to 190 °C for the second.

First: COc1ccc(C(=O)c2c(N)sc3c2CCSC3)cc1
Second: COc1ccc2nc3[nH]nc(N)c3cc2c1
The melting point of the first is lower: 178 to 179 °C for the first, > 300 °C for the second.

First: CC(=NO)c1ccc(Nc2c3ccccc3nc3occc23)cc1
Second: COc1cccc(CC(=NO)c2ccccc2)c1
The melting point of the first is higher: 264 to 265 °C for the first, 72 to 73 °C for the second.

Compared with CC(C)(C)OC(=O)C(C1NC(C(=O)OCc2ccccc2)C2(CCOCC2)S1)N1C(=O)c2ccccc2C1=O (stereo unspecified), CCN1CCC(C(c2ccccc2)c2ccccc2)C(=O)C1 (stereo unspecified) is lower in melting point: 168 to 169 °C for the first, 73 to 74 °C for the second.

Compared with N=C(N)Nc1nc(CSCCC(=O)NS(N)(=O)=O)cs1, CC(N)=CC(=O)CS(=O)(=O)NC(C)C is lower in melting point: 160 °C for the first, 119 to 121 °C for the second.

First: O=C(O)c1cc(S(=O)(=O)Oc2ccccc2-c2ccc(-c3c(Cc4ccccc4)oc4ccccc34)cc2)ccc1O
Second: O=C(Cc1c2c(nn1-c1ccccc1)c(Cl)nc1ccccc12)N1CCN(Cc2ccccc2)CC1
The melting point of the first is lower: 171 to 173 °C for the first, 210 to 212 °C for the second.

Compared with CCCC(CCC)C(=O)NC(C)C(=O)OC (stereo unspecified), CCCCCCC(=O)C[C@H](O)C(=O)O is lower in melting point: 72 to 73 °C for the first, 69 to 70 °C for the second.

CC(=O)c1ccc(OCCCCOc2ccccc2)cc1 and CC(C)(C)C(=O)COc1ccc(S(=O)(=O)c2ccccc2)cc1 cannot be ordered by melting point: 104 to 106 °C for the first, 105 to 108 °C for the second.

First: O=C1c2c(Cl)cccc2-n2cnc(-c3nc(CN4Cc5ccccc5C4)no3)c2[C@@H]2CCN12
Second: O=C(O)CCN1CCN(C2=Nc3ccccc3Cc3ccccc32)CC1
The melting point of the first is higher: 170 to 175 °C for the first, 140 to 141 °C for the second.

First: O=C(Nc1ccc2[nH]c(=O)oc2c1)C(=O)N1CCC(Cc2ccc(C(F)(F)F)cc2)CC1
Second: C[C@@H]1S[C@@H](C(=O)Nc2ccc(CN3CCOCC3)cc2)Cc2cc3c(cc2C1=O)OCO3
The melting point of the first is higher: 217 °C for the first, 172 to 174 °C for the second.

Compared with COc1cccc(N2CCN(CCC(=O)O)CC2)c1, Cn1c(=O)c2c(ncn2CCCN2CCC(C(=O)c3ccc(F)cc3)CC2)n(C)c1=O is lower in melting point: 180 to 183 °C for the first, 114 to 119 °C for the second.

First: CC(=O)OCCCN1CCC(CNC(=O)[C@@H]2CCCN2S(=O)(=O)c2ccc(Cl)c(COc3cccc4c(-n5cncn5)cc(C)nc34)c2Cl)CC1
Second: CC(C)n1nc(-c2c(-c3ccccc3)nn3ccc(C(=O)N4CCCC4)cc23)ccc1=O
The melting point of the first is lower: 120 °C for the first, 189 to 190 °C for the second.

First: O=C(NCCC1CCCCC1)NCCC1CCCCC1
Second: CC(C)(C)[S@@](=O)NC1(c2ccc3c(C(F)(F)F)c(O[C@H]4CC[C@H](C(C)(C)C)CC4)ccc3c2)COC1
The melting point of the first is higher: 150 to 152 °C for the first, 86.8 to 90 °C for the second.

First: CC(=O)c1ccc(C(Br)C(=O)OC(C)(C)C)cc1 (stereo unspecified)
Second: CC(C)NC(=O)C(C)(C)C
The melting point of the first is lower: 54 to 56 °C for the first, 106 to 108 °C for the second.

Compared with N#Cc1cc(O)c(O)c(O)c1, Cc1cccc(C)c1NC1=NCCN1 is lower in melting point: 219 °C for the first, 155 to 156 °C for the second.

First: COc1ccc(Cn2cnc3c(-c4ccco4)nc(OCc4ccccc4)nc32)cc1
Second: COc1ccc(-c2nn(Cc3ccc(F)cc3)c(=O)cc2-c2ccncc2)cc1
The melting point of the first is lower: 122 °C for the first, 154 to 155 °C for the second.

First: O=S1CCON=C1c1nnc(-c2cccc(Cl)c2)o1 (stereo unspecified)
Second: FC(F)(F)Oc1ccc(-n2cnc3ccc(-c4nnc(N5CCOCC5)o4)cc32)cc1
The melting point of the first is higher: 208 to 210 °C for the first, 202 to 203 °C for the second.

First: CCOP(=O)(Cc1ccc(-c2nc3cccc(Cl)c3o2)cc1)OCC
Second: CCOc1ccc(C(=O)c2ccccc2F)c(Cl)c1Cl
The melting point of the first is lower: 92 to 93 °C for the first, 94 to 95 °C for the second.

First: OCCc1c(C2=CCC(c3ccccc3)(N3CCCC3)CC2)[nH]c2ccc(F)cc12 (stereo unspecified)
Second: CN1CCC(OC2c3ccccc3CCn3c2nc(-c2ccccc2)c3-c2ccccc2)CC1 (stereo unspecified)
The melting point of the first is higher: 188 to 191 °C for the first, 90 °C for the second.

First: CCc1nnc(C2=C(OC(=O)c3ccccc3)c3ccccc3S(=O)(=O)N2C)o1
Second: COC(=O)Nc1c(C/C=C(\C)CCC(=O)O)c(OC)c(C)c2c1C(=O)OC2
The melting point of the first is higher: 191 to 192 °C for the first, 155 to 158 °C for the second.

With Cn1nc(-c2cc(C=O)c(Cl)cc2Cl)c(Cl)c1OC(F)F the melting point was 138 °C.
